Species on record: Rattus norvegicus
Experiment: Open TG-GATES - Regimen: Single
Type: toxicity, organism-based, Sprague-Dawley
Parameters: regimen Single, gender Male, age 6 weeks
Settings: in vivo, po, 250 mg/kg, route gavage, dose level Middle; for APTT / Bas / Eos / Fbg / Hb / Ht / Lym / MCH / MCHC / MCV / Mono / Neu / PT / Plat / RBC / Ret / WBC: tissue Blood; for KIDNEY_L / KIDNEY_R / KIDNEY_TOTAL: tissue Kidney; for LIVER: tissue Liver; for A/G / ALP / ALT / AST / BUN / CRE / Ca / Cl / DBIL / GLC / IP / K / LDH / Na / PL / RALB / TBIL / TC / TG / TP / gamma-GTP: tissue Plasma

Compound: CN(C/C=C/C#CC(C)(C)C)Cc1cccc2ccccc12 [TERBINAFINE]
- TERMINAL_BW (3 h): 225.8 g
- APTT (3 h): 20 s
- Bas (3 h): 0.6%
- Eos (3 h): 0.8%
- Fbg (3 h): 215.8 mg/dL
- Hb (3 h): 13.2 g/dL
- Ht (3 h): 39.2%
- Lym (3 h): 79.4%
- MCH (3 h): 21.8 pg
- MCHC (3 h): 33.7%
- MCV (3 h): 64.7 fL
- Mono (3 h): 2.2%
- Neu (3 h): 16.6%
- PT (3 h): 12.2 s
- Plat (3 h): 125.2 x10_4/uL
- RBC (3 h): 606.8 x10_4/ul
- Ret (3 h): 7.2%
- WBC (3 h): 90.5 x10_2/uL
- KIDNEY_L (3 h): 1 g
- KIDNEY_R (3 h): 1 g
- KIDNEY_TOTAL (3 h): 2 g
- LIVER (3 h): 10.4 g
- A/G (3 h): 1.7
- ALP (3 h): 909.4 IU/L
- ALT (3 h): 42.4 IU/L
- AST (3 h): 72.8 IU/L
- BUN (3 h): 12 mg/dL
- CRE (3 h): 0.4 mg/dL
- Ca (3 h): 10.6 mg/dL
- Cl (3 h): 103.6 meq/L
- DBIL (3 h): 0.084 mg/dL
- GLC (3 h): 213 mg/dL
- IP (3 h): 9.1 mg/dL
- K (3 h): 3.9 meq/L
- LDH (3 h): 166.8 IU/L
- Na (3 h): 141.4 meq/L
- PL (3 h): 123.8 mg/dL
- RALB (3 h): 3.4 g/dL
- TBIL (3 h): 0.1 mg/dL
- TC (3 h): 65 mg/dL
- TG (3 h): 43.8 mg/dL
- TP (3 h): 5.4 g/dL
- gamma-GTP (3 h): 1 IU/L
- TERMINAL_BW (6 h): 221.8 g
- APTT (6 h): 18.1 s
- Bas (6 h): 0.4%
- Eos (6 h): 0.8%
- Fbg (6 h): 220.6 mg/dL
- Hb (6 h): 13.3 g/dL
- Ht (6 h): 39.5%
- Lym (6 h): 74%
- MCH (6 h): 21.5 pg
- MCHC (6 h): 33.7%
- MCV (6 h): 64 fL
- Mono (6 h): 2.4%
- Neu (6 h): 22.2%
- PT (6 h): 12.3 s
- Plat (6 h): 110.3 x10_4/uL
- RBC (6 h): 617.4 x10_4/ul
- Ret (6 h): 6.8%
- WBC (6 h): 90.7 x10_2/uL
- KIDNEY_L (6 h): 1 g
- KIDNEY_R (6 h): 1 g
- KIDNEY_TOTAL (6 h): 2 g
- LIVER (6 h): 9.6 g
- A/G (6 h): 1.8
- ALP (6 h): 842.8 IU/L
- ALT (6 h): 36 IU/L
- AST (6 h): 70.6 IU/L
- BUN (6 h): 11.4 mg/dL
- CRE (6 h): 0.4 mg/dL
- Ca (6 h): 10.6 mg/dL
- Cl (6 h): 102.8 meq/L
- DBIL (6 h): 0.086 mg/dL
- GLC (6 h): 204 mg/dL
- IP (6 h): 9.7 mg/dL
- K (6 h): 4 meq/L
- LDH (6 h): 156 IU/L
- Na (6 h): 141.4 meq/L
- PL (6 h): 132.2 mg/dL
- RALB (6 h): 3.5 g/dL
- TBIL (6 h): 0.2 mg/dL
- TC (6 h): 71.8 mg/dL
- TG (6 h): 35.2 mg/dL
- TP (6 h): 5.4 g/dL
- gamma-GTP (6 h): 1 IU/L
- TERMINAL_BW (9 h): 220.9 g
- APTT (9 h): 18.2 s
- Bas (9 h): 0.6%
- Eos (9 h): 1%
- Fbg (9 h): 211.6 mg/dL
- Hb (9 h): 12.8 g/dL
- Ht (9 h): 38.5%
- Lym (9 h): 77.8%
- MCH (9 h): 20.8 pg
- MCHC (9 h): 33.3%
- MCV (9 h): 62.3 fL
- Mono (9 h): 2.4%
- Neu (9 h): 18.2%
- PT (9 h): 12.5 s
- Plat (9 h): 114.8 x10_4/uL
- RBC (9 h): 618 x10_4/ul
- Ret (9 h): 6.3%
- WBC (9 h): 74.3 x10_2/uL
- KIDNEY_L (9 h): 1 g
- KIDNEY_R (9 h): 1 g
- KIDNEY_TOTAL (9 h): 2 g
- LIVER (9 h): 9.1 g
- A/G (9 h): 1.6
- ALP (9 h): 845 IU/L
- ALT (9 h): 31.4 IU/L
- AST (9 h): 67.6 IU/L
- BUN (9 h): 12 mg/dL
- CRE (9 h): 0.4 mg/dL
- Ca (9 h): 10.3 mg/dL
- Cl (9 h): 103.4 meq/L
- DBIL (9 h): 0.074 mg/dL
- GLC (9 h): 198.2 mg/dL
- IP (9 h): 10.8 mg/dL
- K (9 h): 4.1 meq/L
- LDH (9 h): 153 IU/L
- Na (9 h): 141.8 meq/L
- PL (9 h): 122 mg/dL
- RALB (9 h): 3.4 g/dL
- TBIL (9 h): 0.1 mg/dL
- TC (9 h): 64 mg/dL
- TG (9 h): 26.6 mg/dL
- TP (9 h): 5.5 g/dL
- gamma-GTP (9 h): 1.4 IU/L
- TERMINAL_BW (24 h): 237.1 g
- APTT (24 h): 18.5 s
- Bas (24 h): 0.6%
- Eos (24 h): 1%
- Fbg (24 h): 223.8 mg/dL
- Hb (24 h): 13.4 g/dL
- Ht (24 h): 39.8%
- Lym (24 h): 79.2%
- MCH (24 h): 21.4 pg
- MCHC (24 h): 33.8%
- MCV (24 h): 63.3 fL
- Mono (24 h): 3.2%
- Neu (24 h): 15.6%
- PT (24 h): 12 s
- Plat (24 h): 127.3 x10_4/uL
- RBC (24 h): 628.2 x10_4/ul
- Ret (24 h): 6.6%
- WBC (24 h): 91.5 x10_2/uL
- KIDNEY_L (24 h): 1.1 g
- KIDNEY_R (24 h): 1.1 g
- KIDNEY_TOTAL (24 h): 2.2 g
- LIVER (24 h): 11.9 g
- A/G (24 h): 1.6
- ALP (24 h): 1068.6 IU/L
- ALT (24 h): 46.4 IU/L
- AST (24 h): 84.6 IU/L
- BUN (24 h): 15.4 mg/dL
- CRE (24 h): 0.4 mg/dL
- Ca (24 h): 10.7 mg/dL
- Cl (24 h): 103.2 meq/L
- DBIL (24 h): 0.098 mg/dL
- GLC (24 h): 191.2 mg/dL
- IP (24 h): 8.6 mg/dL
- K (24 h): 3.9 meq/L
- LDH (24 h): 193.8 IU/L
- Na (24 h): 141.4 meq/L
- PL (24 h): 135 mg/dL
- RALB (24 h): 3.4 g/dL
- TBIL (24 h): 0.2 mg/dL
- TC (24 h): 72.4 mg/dL
- TG (24 h): 84 mg/dL
- TP (24 h): 5.5 g/dL
- gamma-GTP (24 h): 1.6 IU/L

Reference: ChEMBL document CHEMBL3885861, “Open TG-GATES”
